≈ marks a conversion by molar mass, not a printed value. Read-outs that look alike come from different tables or passages of the source.
Columns and labels:
[1] = system: 48 rhinovirus types and coxsackievirus A21, B3, enterovirus 70 and echovirus 11; conditions: Pattick et al. 1999; cited from earlier work
[2] = cited from earlier work; for therapeutic effect: clinical
HRV 14 = assay: Cytopathic effect (CPE) inhibition assay; format: cell-based, human rhinovirus; conditions: for EC50: Human rhinovirus sp., HeLa, 72 h, read-out: EC50 HRV 14
HRV 21 = assay: Cytopathic effect (CPE) inhibition assay; format: cell-based, human rhinovirus; conditions: for EC50: Human rhinovirus sp., 72 h, read-out: EC50 HRV 21
HRV 71 = assay: Cytopathic effect (CPE) inhibition assay; format: cell-based, human rhinovirus; conditions: for EC50: Human rhinovirus sp., 72 h, read-out: EC50 HRV 71
[3] = system: coxsackievirus B1 (Cox B1); assay: Multicycle cytopathic effect (CPE) reduction assay; format: cell-based; conditions: for EC50: Enterovirus B, B1, 72 h, read-out: EC50 CoxB1; for EC50 CoxB1: 100 CCID50, MTS, 37° C., 3 days
[4] = system: coxsackievirus B3 (Cox B3); assay: Multicycle cytopathic effect (CPE) reduction assay; format: cell-based; conditions: for EC50: Enterovirus B, B3, 72 h, read-out: EC50 CoxB3; for EC50 CoxB3: 100 CCID50, MTS, 37° C., 3 days
poliovirus 3 (PV3) = assay: microbe, parasite or virus in culture; format: cell-based; conditions: for EC50: Enterovirus C, 72 h, read-out: EC50 PV3; for EC50 PV3: 100 CCID50, MTS, 37° C., 3 days
[5] = Cytotoxicity (CC50) in multicycle CPE reduction assay, MTS; conditions: human
[6] = Cytotoxicity (CC50) in mock-infected cells, CPE inhibition assay, MTT; conditions: human
[7] = system: HeLa (human cervical cancer cells)
HeLa = assay: Cytotoxicity (CC50) in multicycle CPE reduction assay, MTS; conditions: Table 4; MTS, 37° C., 3 days
in vitro = conditions: human
[8] = in vivo, cited from earlier work
[9] = system: rhinoviruses and enteroviruses; conditions: cited from earlier work
[10] = system: HeLa (human cervical cancer cells); assay: Cytotoxicity (CC50) in mock-infected cells, CPE inhibition assay, MTT; conditions: Table 3; mock-infected cells, MTT assay, 2-3 days
[11] = host cell HeLa, 3 days, MEM/2% FBS, MTT assay

CCOC(=O)/C=C/[C@H](C[C@@H]1CCNC1=O)NC(=O)[C@@H](CC(=O)[C@@H](NC(=O)c1cc(C)on1)C(C)C)Cc1ccc(F)cc1 [AG 7088]
concentration range of effect in the cell culture [1]: nanomolar concentration range

CC(C)S(=O)(=O)n1c(N)nc2ccc(/C(=N/O)c3ccccc3)cc21 [Enviroxime]
therapeutic effect [2]: few or no therapeutic effects
pharmacokinetics ([2]; in vivo): insufficient pharmacokinetics
side effects ([2]; in vivo): unwanted side effects

CC(C)c1ccc2c(c1)OC1(O)c3c(cccc3[N+](=O)[O-])C(=O)C21NC(=O)C(=O)Cc1ccccc1[N+](=O)[O-] (stereo not shown) [Example 25, N-(4b-hydroxy-7-isopropyl-4-nitro-10-oxo-4b, 10-dihydro-9bH-indeno[1,2-b]benzofuran-9b-yl)-3-(2-nitrophenyl)-2-oxo propanamide]
EC50 (HRV 14): > 2.6 µg/mL
EC50 (HRV 21; HeLa): > 2.6 µg/mL
EC50 (HRV 71; HeLa): > 2.6 µg/mL
EC50 [3]: < 1 µg/mL
EC50 [4]: < 1 µg/mL
EC50 (poliovirus 3 (PV3)): > 9.5 µg/mL
CC50 at 3 days [5]: 9.5 µg/mL (≈ 17.9 µM)
CC50 [6]: 2.6 µg/mL (≈ 4.89 µM)

CC(C)c1ccc2c(c1)OC1(O)c3ccccc3C(=O)C21NC(=O)CCC(=O)O (stereo not shown) [Example 57, 4-((4b-hydroxy-7-isopropyl-10-oxo-4b, 10-dihydro-9bH-indeno[1,2-b]benzofuran-9b-yl)amino)-4-oxo butanoic acid]
EC50 HRV 14 (HRV 14; [11]): <10.0 µg/mL
EC50 HRV 21 (HRV 21; [11]): >10.0 µg/mL
EC50 HRV 71 (HRV 71; [11]): >10.0 µg/mL
EC50 CoxB1 [3]: <1.0 µg/mL
EC50 CoxB3 [4]: <1.0 µg/mL
EC50 PV3 (poliovirus 3 (PV3)): >10.0 µg/mL
CC50 Cytotoxicity [7]: >10.0 µg/mL
CC50 Cytotoxicity (HeLa): >10.0 µg/mL

CC(C)c1ccc2c(c1)OC1(O)c3ccccc3C(=O)C21NC(=O)CN (stereo not shown) [Example 64, 2-amino-N-(4b-hydroxy-7-isopropyl-10-oxo-4b, 10-dihydro-9bH-indeno[1,2-b]benzofuran-9b-yl)acetamide]
EC50 (HRV 14; [11]): < 10 µg/mL
EC50 (HRV 21; [11]): > 10 µg/mL
EC50 (HRV 71; [11]): > 10 µg/mL
EC50 [3]: < 0.1 µg/mL
EC50 [4]: < 0.1 µg/mL
EC50 (poliovirus 3 (PV3)): > 10 µg/mL
CC50 (in vitro): > 10 µg/mL
CC50 at 3 days [5]: > 10 µg/mL

Cc1cc(CCCOc2c(C)cc(-c3noc(C(F)(F)F)n3)cc2C)on1 [Pleconaril]
oral bioavailability ([8]; po): very good oral bioavailability
therapeutic effect [2]: therapy success was too low
side effects ([2]; in vivo): side effects were observed

Cc1cc(CCCCCOc2c(Cl)cc(C3=NCCO3)cc2Cl)on1 [WIN 54954]
metabolization and excretion [8]: rapid metabolization and excretion
side effects ([2]; in vivo): skin rash

CCC(=O)C(CCCCCCOc1ccc(OC)cc1Cl)C(=O)CC [arildone]
antiviral effects in the cell culture [9]: very good antiviral effects
bioavailability [8]: low bioavailability

Cc1cc(CCCCCCCOc2ccc(C3=NCCO3)cc2)on1 [disoxaril]
antiviral effects in the cell culture [9]: very good antiviral effects
bioavailability [8]: low bioavailability
metabolization and excretion [8]: rapid metabolization and excretion

CCOC(=O)c1ccc(OCCC2CCN(c3ccc(C)nn3)CC2)cc1 [pirodavir]
antiviral effects in the cell culture [9]: very good antiviral effects

N-(1-amino-4b-hydroxy-7-isopropyl-10-oxo-4b, 10-dihydro-9bH-indeno[1,2-b]benzofuran-9b-yl)-2-oxo hexanamide [Example 50]
EC50 HRV 14 (HRV 14; [11]): <0.1 µg/mL
EC50 HRV 21 (HRV 21; [11]): >10.0 µg/mL
EC50 HRV 71 (HRV 71; [11]): >10.0 µg/mL
EC50 CoxB1 [3]: <0.1 µg/mL
EC50 CoxB3 [4]: <0.1 µg/mL
EC50 PV3 (poliovirus 3 (PV3)): <1.0 µg/mL
CC50 Cytotoxicity (HeLa): >10.0 µg/mL
CC50 Cytotoxicity [10]: >10.0 µg/mL

N-(4b-hydroxy-7-isopropyl-4-nitro-10-oxo-4b, 10-dihydro-9bH-indeno[1,2-b]benzofuran-9b-yl)-2-oxo-4-phenyl butanamide [Example 59]
EC50 HRV 14 (HRV 14; [11]): <0.1 µg/mL
EC50 HRV 21 (HRV 21; [11]): >8.6 µg/mL
EC50 HRV 71 (HRV 71; [11]): >8.6 µg/mL
EC50 CoxB1 [3]: <0.1 µg/mL
EC50 CoxB3 [4]: <0.1 µg/mL
EC50 PV3 (poliovirus 3 (PV3)): <0.1 µg/mL
CC50 Cytotoxicity (HeLa): >10.0 µg/mL
CC50 Cytotoxicity [10]: 8.6 µg/mL
